“And” between values parts separate entries of the source, which are not always exact repeats. Identical values can stand only once. “Also recorded” adds a separate entry of the source.
Tests used:
Cdk12/CycK [1] = target: T1, Cdk12/CycK (Homo sapiens, UniProt Q9NYV4); assay: SPR single-cycle kinetics, active Cdk12*/CycK; conditions: T-loop phosphorylated active kinase (CAK1 coexpressed), 1:1 binding model
T1 construct: GST (TEV site) (N, cleaved yes); made in house; host or cells: Sf9 insect cells, co-expressed with S. cerevisiae CAK1
T1 sequence (Q9NYV4 714-1063, one chain of several): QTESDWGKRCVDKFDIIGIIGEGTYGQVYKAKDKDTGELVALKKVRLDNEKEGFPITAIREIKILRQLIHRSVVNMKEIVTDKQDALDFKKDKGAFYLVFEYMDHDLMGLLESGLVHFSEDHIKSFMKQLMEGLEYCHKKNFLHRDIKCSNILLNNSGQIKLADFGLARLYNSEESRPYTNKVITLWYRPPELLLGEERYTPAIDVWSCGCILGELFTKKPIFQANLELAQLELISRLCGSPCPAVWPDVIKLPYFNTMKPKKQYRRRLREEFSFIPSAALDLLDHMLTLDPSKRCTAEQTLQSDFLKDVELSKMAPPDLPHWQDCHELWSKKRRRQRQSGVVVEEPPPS

Cdk12/CycK [2] = target: T1, Cdk12/CycK; assay: radioactive in vitro kinase assay, Cdk12/CycK; type: biochemical; conditions: 20 min; for inhibitory effect on Cdk12/CycK activity, in words: 0, 0.1, 1, 10, 100 μM compound, 0.2 μM Cdk12, 0.2 mM ATP, His-c-Myc; for IC50: 0.2 μM kinase, 0.2 mM ATP, 50 μM His-c-Myc, sigmoidal fit
Experimental: To a concentration of 0.2 μM kinase and 0.2 mM ATP, a compound concentration ranging from 0.1 nM to 1 mM was applied. Kinase reactions were started by the addition of 100 μM CTD peptide containing three hepta-repeats continuously prephosphorylated at position S7 (pS7-CTD[3]) and terminated after 60 min incubation time. In vitro IC50-values were determined by applying a sigmoidal fit to dose-response measurements (Fig. 1A).
Cdk12 kinase (0.2 μM) in the presence of 0.2 mM ATP were supplemented with respective compounds at concentrations of 0, 0.1, 1, 10, and 100 μM for 5 min. Upon addition of 50 μM His-c-Myc substrate the kinase assay reaction was conducted for 20 min.
Radioactive kinase activity assays were performed in a total volume of 15 μl per sample in kinase assay buffer (50 mM Hepes/pH 7.6, 34 mM KCl, 7 mM MgCl2, 5 mM β-glycerol phosphate, and 2.5 mM dithioerythritol). Preincubation of 0.2 μM or 0.02 μM recombinant protein kinase with indicated concentrations of respective inhibitor and 0.2 to 2 mM ATP containing 0.45 mCi [^32P]-γ-ATP/ml (PerkinElmer) was carried out for 5 min. Kinase reactions were started by addition of substrate protein (10 μM GST-Rb1 for Cdk4/CycD3, 10 μM GST-CTD[52] for Cdk7/CycH/MAT1, 50 μM His-c-Myc for all others) and incubated for 20 min at 30 °C in a shaking incubator at 300 rpm. For pS7-CTD[3] peptide, the substrate concentration was increased to 100 μM and assays were performed for 60 min. Reactions were terminated by the addition of EDTA to a final concentration of 50 mM. Reaction samples were separately spotted onto Amersham Protran nitrocellulose membranes (GE HealthCare) and subsequently washed three times for 5 min in PBS. Samples were transferred to 4 ml liquid scintillation vials and 2 ml liquid scintillator (Ultima Gold) were added. Radioactive counts were determined in a Beckman Liquid Scintillation Counter (Beckman Coulter) for 1 min. […] For analysis of dose response measurements and IC50 value determination, data of inhibitor-supplemented samples were normalized to DMSO solvent controls and their activity plotted against the inhibitor concentration. IC50 values were extracted from triplicate measurements by sigmoidal curve fitting using DataGraph (v. 5.0; https://www.visualdatatools.com/DataGraph/) or were determined by applying the Morrison quadratic equation for tight binding inhibitors using GraphPad Prism 10 (https://www.graphpad.com/) ([40]).

Cdk9/CycT1 = target: T2, Cdk9/CycT1 (Homo sapiens, UniProt P50750); assay: SPR single-cycle kinetics, Cdk9/CycT1; conditions: 1:1 binding model
T2 construct: Full-length, human, WT Cdk9 (residues 1–372, UniProt P50750); made in house; host or cells: Cdk9: Sf9 insect cells; CycT1: E. coli
T2 sequence (P50750 whole entry, the tested form may be a part): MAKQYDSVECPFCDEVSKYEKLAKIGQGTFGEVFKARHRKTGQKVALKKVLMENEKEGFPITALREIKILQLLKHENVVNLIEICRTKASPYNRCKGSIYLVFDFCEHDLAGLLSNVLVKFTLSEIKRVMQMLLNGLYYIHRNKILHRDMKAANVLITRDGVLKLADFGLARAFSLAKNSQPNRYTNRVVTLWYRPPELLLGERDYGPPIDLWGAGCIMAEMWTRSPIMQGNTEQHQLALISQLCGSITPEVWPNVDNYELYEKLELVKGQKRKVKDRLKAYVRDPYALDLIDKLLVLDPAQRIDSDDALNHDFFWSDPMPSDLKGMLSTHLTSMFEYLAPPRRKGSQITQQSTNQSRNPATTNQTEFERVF
T2 sequence (O60563 1-272 partner limits assumed): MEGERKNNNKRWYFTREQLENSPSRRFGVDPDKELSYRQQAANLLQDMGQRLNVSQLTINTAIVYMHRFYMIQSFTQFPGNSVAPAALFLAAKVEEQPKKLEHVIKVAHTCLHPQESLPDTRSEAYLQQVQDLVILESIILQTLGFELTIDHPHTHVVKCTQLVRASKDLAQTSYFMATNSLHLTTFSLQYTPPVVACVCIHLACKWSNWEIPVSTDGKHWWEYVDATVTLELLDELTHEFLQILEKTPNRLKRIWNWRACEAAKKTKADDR
Experimental: The protein kinases were immobilized on a CM5 chip using the amine-coupling method. […] The fully active and T-loop phosphorylated kinase preparations of Cdk12∗/CycK and Cdk13∗/CycK were obtained through coexpression with Cdk-activating kinase 1 (CAK1) from Saccharomyces cerevisiae. […] For comparison, we measured the affinity of NVP-2 for active kinases Cdk12∗/CycK and its proposed target Cdk9/CycT1 by SPR.
SPR experiments were conducted on a Biacore 8K (Cytiva) device. The system was equilibrated in running buffer (20 mM Tris pH 8, 150 mM NaCl, 1 mM tris(2-carboxyethyl)phosphine, 0.1 mM MgCl2, 0.05% Tween20, and 2% DMSO) at 25 °C. Flow cell 1 and 2 surfaces of a CM5 sensor chip (Cytiva) were conditioned with 50 mM NaOH at a flow rate of 30 μl/min for 15 s and subsequently activated with a 1:1 mix of 0.1 M N-hydroxysuccinimide (NHS) and 0.1 M 3-(N,N-dimethylamino) propyl-N-ethyl-carbodiimide (EDC) at a flow rate of 10 μl/min for 7 min. The flow system was washed with 1 M enthanolamine (pH 8). WT and mutant kinases Cdk12/CycK, Cdk13/CycK and Cdk9/CycT1 were diluted in Mes (pH 6.5) to a final concentration of 2 μM. Immobilization of kinases was performed in running buffer without DMSO using the amine coupling method on flow cell 2 surface for 160 s at a flow rate of 10 μl/min. Free binding sites were blocked with 1 M ethanolamine pH 8.0 (10 μl/min) for 7 min. […]

[3] = target: T3, Cdk12 kinase domain (residues 714–1063), T-loop phosphorylated, coexpressed with CAK1 (human, UniProt Q9NYV4 714-1063, phosphothreonine at 893 (pT893)); assay: crystal structure; Cdk12/CycK at 12 mg/ml with 5-fold excess of SR-4835; hanging drop vapor diffusion at 15 °C; 0.1 M Mops pH 6.5, 30% PEG mix, 0.1 M NDSB; 2.68 Å; conditions: both partners purified
T3 construct: kinase domain of human Cdk12, residues 714–1063, UniProt Q9NYV4; synthetic codon-optimised gene; The final model of 8P81 holds residues 716 to 1032 of Cdk12; also called cyclin-dependent kinase 12; not shown: GST, N-terminal, cleaved
T3 sequence (Q9NYV4 714-1063): as the sequence (Q9NYV4 714-1063, one chain of several) above

| Molecule | inhibitory effect on Cdk12/CycK activity, in words (Cdk12/CycK [2]) | IC50 (Cdk12/CycK [2]) | other results |
| --- | --- | --- | --- |
| COC[C@@H](C)NC1CCC(Nc2cc(-c3cccc(NCC4(C#N)CCOCC4)n3)c(Cl)cn2)CC1 (some centres unmarked) [NVP-2] | highest potency | 40.9 nM | Kd (Cdk12/CycK [1]): 2.9 nM and 2.88 nM; Kd (Cdk9/CycT1): 0.1 nM |
| CN(C)C/C=C/C(=O)Nc1ccc(C(=O)Nc2cccc(Nc3ncc(Cl)c(-c4c[nH]c5ccccc45)n3)c2)cc1 [THZ1] | modest effects | 87.2 nM |  |
| CN(C)C/C=C/C(=O)Nc1ccc(C(=O)N2CCC[C@@H](Nc3ncc(Cl)c(-c4c[nH]c5ccccc45)n3)C2)cc1 [THZ531] | modest effects | 174 nM |  |
| CCN1CCN(Cc2ccc(Nc3ncc(F)c(-c4cc(F)c5nc(C)n(C(C)C)c5c4)n3)nc2)CC1 [abemaciclib] | modest effects; also recorded: only weak efficacy | 1300 nM |  |
| CCc1cnn2c(NCc3ccc[n+]([O-])c3)cc(N3CCCC[C@H]3CCO)nc12 [dinaciclib] | highest potency |  |  |
| CN1CC[C@H](c2c(O)cc(O)c3c(=O)cc(-c4ccccc4Cl)oc23)[C@H](O)C1 [flavopiridol] | modest effects |  |  |
| CC(=O)c1c(C)c2cnc(Nc3ccc(N4CCNCC4)cn3)nc2n(C2CCCC2)c1=O [palbociclib] | no inhibitory effect |  |  |
| CN(C)C(=O)c1cc2cnc(Nc3ccc(N4CCNCC4)cn3)nc2n1C1CCCC1 [ribociclib] | no inhibitory effect |  |  |
| CN1CCN(c2ccc(Nc3ncc4cc5n(c4n3)C3(CCCCC3)CNC5=O)nc2)CC1 [trilaciclib] | modest effects; also recorded: only weak efficacy | 1340 nM |  |
| cyclin K cyclin box domains (residues 1–267) (domain or fragment, human, UniProt O75909 1-267, looked up, cyclin box domains of human cyclin K, residues 1–267, UniProt O75909; synthetic codon-optimised gene; The final model of 8P81 holds residues 20 to 260 of CycK; also called CycK; not shown: GST, N-terminal, cleaved) MKENKENSSPSVTSANLDHTKPCWYWDKKDLAHTPSQLEGLDPATEARYRREGARFIFDVGTRLGLHYDTLATGIIYFHRFYMFHSFKQFPRYVTGACCLFLAGKVEETPKKCKDIIKTARSLLNDVQFGQFGDDPKEEVMVLERILLQTIKFDLQVEHPYQFLLKYAKQLKGDKNKIQKLVQMAWTFVNDSLCTTLSLQWEPEIIAVAVMYLAGRLCKFEIQEWTSKPMYRRWWEQFVQDVPVDVLEDICHQILDLYSQGKQQMPH |  |  | binding result [3]: binds |

— paper PMC10767194 (The Journal of Biological Chemistry, 2023)
